Source: patent US4070470A, “Platelet aggregation inhibiting carbostyrils, their compositions and method of use” (Otsuka Pharmaceutical Co., Ltd., priority 1974, dated 1978)

Tests used:
[1] = tested on: ADP-induced aggregation in rabbit platelet; assay: Inhibition effect on ADP-induced aggregation in rabbit platelet; type: cell-based; details: rabbit platelet (PRP); for inhibition at 100 µM / inhibition at 10 µM / inhibition at 1 µM / inhibition at 0.01 µM / inhibition at 0.1 µM: Oryctolagus cuniculus, Platelet; for inhibition at 0.01 µM: 10^-8 M test compound solution
Method: (§1) The aggregation inhibitory activity was determined using an AG-II type aggregometer (made by Bryston Manufacturing Co.). A blood sample was withdrawn from rabbits as a mixture of sodium citrate and whole blood in a proportion of 1 : 9 by volume and centrifuged at 1000 rpm for 10 minutes to obtain a platelet rich plasma (PRP). The resulting PRP was separated, and the remaining blood sample was further centrifuged at 3000 rpm for 15 minutes to obtain a platelet poor plasma (PPP).
(§2) The number of platelets in the PRP was counted in accordance with the Brecher-Clonkite Method, and the PRP was diluted with the PPP to prepare a PRP sample containing platelets in an amount of 300,000/[…] for an adenosine diphosphate (ADP)-induced aggregation test and a PRP sample containing platelets in an amount of 450,000/[…] for a collagen-induced aggregation test.
(§3) 0.01 ml of a solution of a test compound having a predetermined concentration (as shown in the Tables below) was then added to 0.6 ml of the PRP sample obtained above and the mixture was incubated at a temperature of 37° C for 1 minute. Then 0.07 ml of an ADP or collagen solution was added to the mixture. The mixture was then subjected to a transmittance determination and changes in the transmittance of the mixture were recorded using aggregometer at a stirrer rotation rate of 1100 rpm. In this test, Auren Beronal buffer (pH 7.35) was used for the preparation of solutions of ADP, collagen and the test compounds. ADP was adjusted to a concentration of 7.5 × 10^-5 M, and the collagen solution was prepared by triturating 100 mg of collagen with 5 ml of the above buffer and the supernatant obtained was used as a collagen inducer. Adenosine and acetylsalicyclic acid were used as controls for the ADP-induced aggregation test and the collagen-induced aggregation test, respectively. The aggregation inhibitory activity was determined in terms of the percent inhibition (%) with respect to the aggregation ratio of controls. The aggregation ratio can be calculated by the following equation: [formula] Wherein: "a" is the optical density of the PRP,
(§4) "b" is the optical density of the PRP having incorporated therein a test compound and an aggregation inducer, and
(§5) "c" is the optical density of the PPP.

[2] = tested on: collagen-induced aggregation in rabbit platelet; assay: Inhibition effect on collagen-induced aggregation in rabbit platelet; type: cell-based; details: rabbit platelet (PRP); for inhibition at 100 µM / inhibition at 10 µM / inhibition at 1 µM / inhibition at 0.01 µM: Oryctolagus cuniculus, Platelet; for inhibition at 100 µM: 10^-4 M test compound solution; for inhibition at 0.01 µM: 10^-8 M test compound solution
Method: as §1, §2, §3, §4, §5

[3] = Toxicity of benzcycloamide derivatives in mouse (LD50); details: in vivo
Text: All the benzcycloamide derivatives represented by the aforesaid general formulas (I) are novel compounds having excellent platelet aggregation-inhibiting effects and are useful as preventives for thrombosis. […] Compounds tested: [drawing 17]

blood platelets = details: at low concentrations; cited from earlier work
thrombosis = details: administered orally or intravenously to mammals including humans; cited from earlier work

Row | SMILES | inhibition at 100 µM ([1]; 10^-4 M test compound solution) [%] | inhibition at 10 µM ([1]; 10^-5 M test compound solution) [%] | inhibition at 1 µM ([1]; 10^-6 M test compound solution) [%] | inhibition at 100 µM [2] [%] | inhibition at 10 µM ([2]; 10^-5 M test compound solution) [%] | inhibition at 1 µM ([2]; 10^-6 M test compound solution) [%] | inhibition at 0.01 µM [2] [%] | further results
1 | CCOC(=O)C(C)Oc1ccc2[nH]c(=O)ccc2c1 (stereo not drawn) [B] | 86 | 54 | -6 | 67 | 12 | -6 | 0 | inhibition at 0.01 µM [1]: 14%
2 | CCOC(=O)C(C)Oc1ccc2c(c1)NC(=O)CC2 (stereo not drawn) [D] | -18 |  | 14 | 2 |  | 8 | 3 | inhibition at 0.01 µM [1]: 14%
3 | CCCCCOC(=O)CCCOc1ccc2c(c1)CCC(=O)N2 [I] | 82 | 58 | 0 | 48 | 22 | 6 |  | inhibition at 0.1 µM ([1]; 10^-7 M test compound solution): 8%
4 | O=C(O)CCCCCCOc1ccc2c(c1)CCC(=O)N2 [L] | 13 | 8 | 7 | 15 | 14 | 2 |  | inhibition at 0.1 µM ([1]; 10^-7 M test compound solution): -10%
5 | CCOC(=O)C(C)Oc1cccc2c1NC(=O)CC2 (stereo not drawn) [Compound M] | 3 |  | 11 | 5 |  | 2 | 7 | inhibition at 0.01 µM [1]: 11%
6 | CCOC(=O)C(C)Oc1ccc2c(c1)CCC(=O)N2 (stereo not drawn) [A] | 57 | 25 | 5 | 71 | 20 | 2 | 0 | 
7 | CCCCCOC(=O)C(C)Oc1ccc2c(c1)CCC(=O)N2 (stereo not drawn) [F] | 100 | 79 | 20 | 88 | 8 | 0 |  | 
8 | CCOC(=O)C(C)Oc1ccc2c(c1)CCC(=O)N2C (stereo not drawn) [C] | 36 |  | 0 | 36 |  | 0 | 9 | inhibition at 0.01 µM [1]: 9%
9 | CC(C)OC(=O)C(C)Oc1ccc2[nH]c(=O)ccc2c1 (stereo not drawn) [G] | 74 | 38 | 7 | 55 | 25 | 3 |  | 
10 | CCOC(=O)CCCOc1ccc2c(c1)CCC(=O)N2 [J] |  |  |  |  |  |  |  | Inhibition effect on ADP-induced aggregation ([1]; 10^-4 M test compound solution): 100%; Inhibition effect on ADP-induced aggregation ([1]; 10^-5 M test compound solution): 90%; Inhibition effect on ADP-induced aggregation ([1]; 10^-6 M test compound solution): 25%; Inhibition effect on ADP-induced aggregation ([1]; 10^-7 M test compound solution): -4%; Inhibition effect on collagen-induced aggregation ([2]; 10^-5 M test compound solution): 86%; Inhibition effect on collagen-induced aggregation ([2]; 10^-6 M test compound solution): 18%
11 | CCOC(=O)CCCCCCOc1ccc2c(c1)CCC(=O)N2 [K] | 37 | 15 | 10 | 31 | 13 | 6 |  | inhibition at 0.1 µM ([1]; 10^-7 M test compound solution): 7%; LD50 ([3]; Female mouse): 500 to 1000 mg/kg; LD50 ([3]; Male mouse): 750 to 1000 mg/kg
12 | CC(C)(C)NCC(O)COc1cccc2c1CCC(=O)N2 (stereo not drawn) [5-(2'-hydroxy-3-tert-butylamino)-propoxy-3,4-dihydrocarbostyril] |  |  |  |  |  |  |  | inhibition of the aggregation of blood platelets (blood platelets): at low concentrations could specifically inhibit the aggregation of blood platelets; preventing and treating thrombosis (thrombosis): very effective for preventing and treating thrombosis
13 | CCOC(=O)CCCOc1ccc2c(c1)CCC(=O)N2 [E] | 100 | 97 |  | 92 |  |  |  | LD50 ([3]; Female mouse): > 1000 mg/kg; LD50 ([3]; Male mouse): > 1000 mg/kg
14 | CCOC(=O)CCCOc1cccc2c1CCC(=O)N2 [H] | 65 | 18 | 2 | 90 | 8 | 5 |  | 
